Results on one compound are retold here after paper PMC9747717, “A novel small molecule inhibitor of human Drp1” (Scientific Reports, 2022).

SMILES strings stand for the structures.

For test [1], the system named is Human foreskin fibroblasts (HFF-1). Kind of test: Hydrogen peroxide-induced oxidative stress, cell death. Conditions: 50 µM compound, 3 mM hydrogen peroxide, compared to DMSO control. Format: cell-based. As for the experimental part: Human foreskin fibroblasts (HFF-1, ATCC, VA, USA) were treated with 3 mM hydrogen peroxide plus vehicle control (0.1% DMSO), Mdivi-1 (50 µM) or individual compound at 50 µM. After 2.5–3 h of incubation at 37 °C in a humidified 5% CO2 incubator, cells were stained with 1 μg/mL propidium iodide and 3 μg/mL Hoechst 33258 to determine the percentage of dead cells. Images were captured at 20 × objective with an inverted microscope (Olympus IX71). The number of dead cells (propodium iodide positive) was counted and expressed as a percentage over total number of cells (Hoechst 33258 positive). At least 100 cells were counted per group for each independent experiment.

Test [2] has as its system human iPSC-derived cardiomyocytes. Kind of test: Doxorubicin-induced cardiomyocyte injury, LDH release. Format: cell-based. Conditions: DRP1i27 50 µM in combination with doxorubicin 5 µM, 2 days. As for the experimental part:
Cardiomyocytes were derived from human induced pluripotent stem cells (iPSCs, CERA007c6 cell line) as previously described with modifications[26],[27]. Briefly, human iPSCs were seeded onto Matrigel (Corning) coated plates at a density of 1.25 × 10^5 cells/cm^2 in TeSR-E8 medium supplemented with 10 μM Y−27632 (Abcam). After 48 h (cells ~ 90% confluent) (day 0), medium was replaced with RPMI-1640 basal medium (Thermo Fisher Scientific) containing B-27 without insulin supplement (Thermo Fisher Scientific), growth factor reduced Matrigel (1:60 dilution) and 10 μM CHIR99021 (Cayman Chemical). At day 1, medium was replaced with RPMI 1640 basal medium containing B-27 without insulin supplement. […]
Enriched cardiomyocytes were replated onto Matrigel-coated 48-well plates at a cell density of 5 × 10^4 cells/cm^2 for 2 days. […] LDH levels in the conditioned media were assessed using a colorimetric CyQUANT LDH Cytotoxicity Assay Kit (Thermo Fisher Scientific) according to manufacturer’s protocol. […] Following the incubation at room temperature for 30 min in the dark, 50 μL of Stop Solution was added and absorbance was measured at 490 nm and 680 nm on a microplate spectrophotometer (Bio-Rad). All readings were then corrected for the background signal from the culture media and expressed as fold change.

A further test has as its system HL-1 cells. Kind of test: Mitochondrial morphology in HL-1 cells under simulated ischaemia-reperfusion injury. Conditions: 50 µM, DMSO 63.14 ± 8.12%. The format is cell-based, Murine. As for the experimental part:
HL-1 cells were plated in 24-well plate pre-coated with 5 μg/mL human fibronectin (Merck Millipore, MA, USA) in 0.02% porcine gelatin solution (Sigma-Aldrich, MA, USA). Cells were maintained in Claycomb media (Sigma-Aldrich) supplemented with 0.1 mM (±)-norepinephrine (+)-bitartrate salt (Sigma-Aldrich), 2 mM GlutaMAX (Thermo Fisher Scientific, MA, USA), 100 μg/mL penicillin/streptomycin (Thermo Fisher Scientific) and 10% non-heat inactivated foetal bovine serum (FBS) (Bovogen Biologicals, Victoria, Australia). The simulated ischaemia–reperfusion injury was performed as described in Rosdah et al.[25]. […] Cell death was determined by staining with 1 μg/mL propidium iodide and 3 μg/mL Hoechst 33258. The number of dead cells (propidium iodide positive) was counted and expressed as a percentage over total number of cells (Hoechst 33258 positive). At least 100 cells were counted per group for each independent experiment.
Mitochondrial morphology in HL-1 cells were visualised by immunostaining of mitochondrial Hsp60 antibody (Abcam, MA, USA). Images were acquired using Olympus BX60 fluorescence microscope at 600 × magnification and analysed using Fiji imaging software (ImageJ v1.53c). […] At least 100 cells were analysed for each treatment group.

The test system of test [3] is Human foreskin fibroblasts. Briefly: Mitochondrial morphology analysis in human fibroblasts. Format: cell-based. As for the experimental part: Human foreskin fibroblasts and Drp1 wildtype and KO MEF (kindly provided by Professor Hiromi Sesaki, Johns Hopkins University, USA)[28],[29] were transduced with pAS2.EYFP.puro lentiviruses (RNAiCore, Academia Sinica, Taiwan) carrying the mitochondrial-targeted EGFP sequence as described in Kalkhoran et al.[30]. Cells were then treated with DRP1i27 (5, 10 or 50 µM) or 0.1% DMSO vehicle control for 24 h.
Mitochondrial morphology in HL-1 cells were visualised by immunostaining of mitochondrial Hsp60 antibody (Abcam, MA, USA). Images were acquired using Olympus BX60 fluorescence microscope at 600 × magnification and analysed using Fiji imaging software (ImageJ v1.53c). Cells were categorised into predominantly (> 50%) having fused or fragmented mitochondria. At least 100 cells were analysed for each treatment group.

With `Cc1nc[nH]c1CN1C[C@@H]2CC[C@H](C1)N(Cc1ccc(-c3cc[nH]n3)o1)C2` [DRP1i27], the “cell death induced by hydrogen peroxide” value in test [1] was “significant reduction”. Besides, in test [2], the LDH release is given as 3.13 ± 0.16 fold change. The “percentage of cells with fragmented mitochondria” value in the test on HL-1 cells is on record as 36.62 ± 7.37%. Moreover, the “percentage of cells with elongated mitochondria” value in test [3] (basal condition, compared to DMSO control) was “significant increase”. Further, the “cellular networks of mitochondria” value in test [3] (human fibroblasts, 5, 10 or 50 µM, 24 h) was “increase cellular networks of mitochondria”.
